This is an account of results in patent publication US20090042912A1, “DIPHENYLIMIDAZOLYL COMPOUNDS AS INHIBITORS OF beta-SECRETASE” (Wyeth, priority 2004, published 2009).

The target in one data set is T1, human BACE2 (Homo sapiens, UniProt Q9Y5Z0).
T1 sequence (Q9Y5Z0 63-518): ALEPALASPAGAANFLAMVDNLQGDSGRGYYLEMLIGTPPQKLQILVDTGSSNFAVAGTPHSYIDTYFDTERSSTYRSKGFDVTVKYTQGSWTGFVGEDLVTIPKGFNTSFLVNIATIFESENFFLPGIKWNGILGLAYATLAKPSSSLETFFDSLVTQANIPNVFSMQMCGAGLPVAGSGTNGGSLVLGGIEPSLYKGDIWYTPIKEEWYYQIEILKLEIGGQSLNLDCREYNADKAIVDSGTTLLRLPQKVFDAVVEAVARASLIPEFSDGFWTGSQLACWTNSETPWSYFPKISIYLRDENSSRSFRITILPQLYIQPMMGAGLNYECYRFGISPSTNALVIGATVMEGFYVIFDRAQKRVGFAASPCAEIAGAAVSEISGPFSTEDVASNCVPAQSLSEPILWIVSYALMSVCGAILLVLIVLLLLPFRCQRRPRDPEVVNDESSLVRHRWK
Kind of data set: Fluorescent kinetic assay for human recombinant BACE 2 (WABC-6 peptide substrate). It counts as biochemical. As to conditions: for IC50: 1.5 nM enzyme, 25 μM substrate, pH 4.5, room temperature; for inhibition at 25 µM: read-out: BACE2. % inhibition. How it is done: Fluorescent Kinetic Assay for Human Recombinant BACE 2
This assay is used to provide kinetic and selectivity parameters for the analyses of the tested compounds.
Temperature: room temperature.
Dilution and Mixing Steps: Total Reaction Volume.: 100 μL • 1.
Readings at λex 320 nm, λem 420 nm are taken every 40-sec for 30 min at room temperature and to determine the linear slope for substrate cleavage rate (vi).

The next data set concerns the target human BACE1 (Homo sapiens, UniProt P56817). As to the kind of experiment: Fluorescent kinetic assay, inhibition of BACE1 (WABC-6 peptide substrate). The format is biochemical. On the procedure: Evaluation of the Enzyme Activity of Test Compounds and the Inhibition of hBACE1, MuBACE1 and hBACE2 by Test Compounds
The concentration is determined by absorbance at 354 nm using an extinction coefficient ε of 18172 M^−1cm^−1, The substrate stock is stored in small aliquots at −80° C. [Substrate Stock]=ABS^354 nm*10^6/18172 ([…])
Dilution and mixing steps: total reaction volume: 100 μL • 1. 2× inhibitor dilutions in buffer A (66.7 mM Na-Acetate, pH 4.5, 0.0667% CHAPS) are prepared, • 2. 4× enzyme dilution in buffer A (66.7 mM Na-Acetate, pH 4.5, 0.0667% CHAPS) are prepared, • 3. 100 μM substrate dilution in 1× PBS is prepared, • 4. 50 μL 2× Inhibitor and 25 μL 100 μM substrate are added to each well of 96-well plate (from DYNEX Technologies, VWR #: 11311-046), the immediately 25 μL 4× enzyme are added to the inhibitor and substrate mixer, the fluorescence readings are initiated.
Readings at λex 320 nm and λem 420 nm are taken every 40-sec for 30 min at room temperature to determine the linear slope for substrate cleavage rate (vi).

The mark [1] stands for this setting: 10 nM enzyme, 25 μM substrate, pH 4.5, room temperature, read-out: IC50 (μM) BACE1.

Read-outs that look alike come from different tables or passages of the source.

Sequence of human BACE1 (P56817 46-501): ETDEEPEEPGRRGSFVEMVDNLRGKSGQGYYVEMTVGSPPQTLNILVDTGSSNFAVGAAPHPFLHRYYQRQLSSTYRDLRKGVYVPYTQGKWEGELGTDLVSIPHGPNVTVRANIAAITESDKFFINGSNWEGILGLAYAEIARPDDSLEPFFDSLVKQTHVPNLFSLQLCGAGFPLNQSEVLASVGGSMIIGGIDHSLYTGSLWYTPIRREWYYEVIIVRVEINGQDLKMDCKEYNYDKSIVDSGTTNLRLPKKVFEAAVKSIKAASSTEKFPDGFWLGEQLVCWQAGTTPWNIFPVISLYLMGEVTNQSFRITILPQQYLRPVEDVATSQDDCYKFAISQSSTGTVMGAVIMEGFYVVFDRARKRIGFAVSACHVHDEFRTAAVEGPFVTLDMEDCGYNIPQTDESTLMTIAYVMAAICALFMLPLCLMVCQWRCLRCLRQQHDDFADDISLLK

Take `NC1=N[C@](c2ccc(OC(F)(F)F)cc2)(c2cccc(-c3cncnc3)c2)C2=NCCCN12` (single isomer, unassigned) [Example 31A]: the IC50 at human BACE2 was found to be 10.4 µM. Turning to `NC1=N[C@](c2ccc(OC(F)(F)F)cc2)(c2cccc(-c3cccnc3F)c2)C2=NCCCN12` (single isomer, unassigned) [Example 30A], the inhibition at 25 µM at human BACE2 (at 25 μM) worked out at 35%. `NC1=NC(c2ccc(OC(F)(F)F)cc2)(c2ccc(F)c(-c3cncnc3)c2)C2=NCCCN12` (stereo not shown) [Example 13, 8-{[(4-Fluoro-3-pyrimidin-5-yl)phenyl]-8-[4-(trifluoromethoxy)phenyl]-2,3,4,8-tetrahydroimidazo[1,5-a]pyrimidin-6-yl}amine] had a melting point of 105 to 115 °C. The IC50 on human BACE1 (setting [1]) worked out at 0.15 µM. The inhibition at 25 µM on human BACE2 (at 25 μM) amounted to 25%. As to `NC1=NC(c2ccc(OC(F)(F)F)cc2)(c2cccc(-c3ccc[n+]([O-])c3F)c2)C2=NCCCN12` (stereo not shown) [Example 34, 8-[3-(2-Fluoro 1-oxy-pyridin-3-yl)-phenyl]-8-(4-trifluoromethoxy-phenyl)-2,3,4,8-tetrahydro-imidazo[1,5-a]pyrimidin-6-ylamine], on human BACE2 (at 25 μM), the inhibition at 25 µM is 25%. In the case of `NC1=N[C@@](c2ccc(OC(F)(F)F)cc2)(c2cccc(-c3cnccc3F)c2)C2=NCCCN12` [Example 33A, (8S)-8-[3-(4-fluoropyridin-3-yl)phenyl]-8-[4-(trifluoromethoxy)-phenyl]-2,3,4,8-tetrahydroimidazo[1,5-a]pyrimidin-6-amine], the IC50 on human BACE1 (setting [1]) is 0.05 µM; at human BACE2, 4 µM.

`NC1=NC(c2ccc(OC(F)(F)F)cc2)(c2ccc(F)c(-c3cccnc3F)c2)C2=NCCCN12` (stereo not shown) [Example 15, 8-[4-fluoro-3-(2-fluoropyridin-3-yl)phenyl]-8-[4-(trifluoromethoxy)phenyl]-2,3,4,8-tetrahydroimidazo[1,5-a]pyrimidin-6-amine] showed a melting point of 99 to 122 °C. Moreover, on human BACE1 (setting [1]), the IC50 was 0.1 µM. For the same compound, the inhibition at 25 µM at human BACE2 (at 25 μM) came to 44%. `CCOc1ccc(C2(c3cccc(-c4cccnc4F)c3)N=C(N)N3CCCN=C32)cc1OCC` (stereo not shown) [Example 25] returned a melting point of 202 to 208 °C. Moreover, the IC50 on human BACE1 (setting [1]) stood at 0.083 µM. The IC50 on human BACE2 worked out at 9.87 µM. Consider `NC1=N[C@@](c2ccc(OC(F)F)cc2)(c2cccc(-c3cccnc3F)c2)C2=NCCCN12` [Example 45B, (8S)-8-(4-Difluoromethoxy-phenyl)-8-[3-(2-fluoro-pyridin-3-yl)-phenyl]-2,3,4,8-tetrahydro-imidazo[1,5-a]pyrimidin-6-ylamine], for which, on human BACE1 (at 2.5 uM), the inhibition at […] came out at 49%. Further, the inhibition at 25 µM on human BACE2 (at 25 μM) is 60%. Consider `NC1=N[C@@](c2ccc(OC(F)(F)F)cc2)(c2cccc(-c3cccnc3F)c2)C2=NCCCN12` (single isomer, unassigned) [Example 30B], for which, on human BACE2, the IC50 is 3.79 µM. As for `NC1=N[C@](c2ccc(OC(F)F)cc2)(c2cccc(-c3cccnc3F)c2)C2=NCCCN12` [Example 45A, (8R)-8-(4-Difluoromethoxy-phenyl)-8-[3-(2-fluoro-pyridin-3-yl)-phenyl]-2,3,4,8-tetrahydro-imidazo[1,5-a]pyrimidin-6-ylamine], the 50% inhibitory concentration (IC50) at human BACE1 (setting [1]) came out at 0.01 µM; at human BACE2, 0.7 µM. Regarding `NC1=N[C@@](c2ccc(OC(F)(F)F)cc2)(c2cccc(-c3cncc(Cl)c3)c2)C2=NCCCN12` [Example 32A, (8S)-8-[3-(5-Chloropyridin-3-yl)phenyl]-8-[4-(trifluoromethoxy)-phenyl]-2,3,4,8-tetrahydroimidazo[1,5-a]pyrimidin-6-amine], the IC50 at human BACE1 (setting [1]) was determined as 0.029 µM; on human BACE2, 0.272 µM. With `NC1=NC(c2ccc(OC(F)(F)F)cc2)(c2cccc(-c3cccnc3F)c2)C2=NCCCCN12` (stereo not shown) [Example 36, 9-[3-(2-Fluoro-pyridin-3-yl)-phenyl]-9-(4-trifluoromethoxy-phenyl)-2,4,5,9-tetrahydro-3H-imidazo[1,5-a][1,3]diazepin-7-ylamine], the IC50 on human BACE1 was found to be 0.071 µM; at human BACE2, 7.32 µM. In the case of `COc1ccc(C2(c3cccc(-c4cncnc4)c3)N=C(N)N3CCCN=C32)cc1` (stereo not shown) [Example 22, 8-(4-methoxyphenyl)-8-(3-pyrimidin-5-ylphenyl)-2,3,4,8-tetrahydroimidazo[1,5-a]pyrimidin-6-amine], the melting point lay in the range of 136 to 140 °C. The inhibition at 25 µM at human BACE2 (at 25 μM) was 60%.

Regarding `NC1=NC(c2cccc(-c3cccnc3F)c2)(c2ccc3c(c2)OCO3)C2=NCCCN12` (stereo not shown) [Example 40, 8-Benzo[1,3]dioxol-5-yl-8-[3-(2-fluoro-pyridin-3-yl)-phenyl]-2,3,4,8-tetrahydro-imidazo[1,5-a]pyrimidin-6-ylamine], the melting point was in the range of 106 to 119 °C. The IC50 on human BACE1 (read-out: IC50 (μM) BACE1.) is 0.16 µM. Take `NC1=NC(c2ccc(OC(F)(F)F)cc2)(c2cccc(-c3cccnc3F)c2)C2=NCCCN12` (stereo not shown) [Example 17, 8-[3-(2-fluoropyridin-3-yl)phenyl]-8-[4-(trifluoromethoxy)phenyl]-2,3,4,8-tetrahydroimidazo[1,5-a]pyrimidin-6-amine]: the melting point lay within 105 to 115 °C. For the same compound, the concentration for half-maximal inhibition (IC50) at human BACE2 amounted to 11.4 µM. Regarding `NC1=NC(c2ccc(OC(F)(F)F)cc2)(c2cccc(-c3cccnc3F)c2)C2=NCCCCCN12` (stereo not shown) [Example 37, 1-[3-(2-Fluoro-pyridin-3-yl)-phenyl]-1-(4-trifluoromethoxy-phenyl)-1,4,5,6,7,8-hexahydro-2,3a,9-triaza-cyclopentacycloocten-3-ylamine], the IC50 on human BACE2 came to 10.8 µM. On human BACE1, `NC1=N[C@](c2ccc(OC(F)(F)F)cc2)(c2cccc(-c3cnccc3F)c2)C2=NCCCN12` [Example 33B, (8R)-8-[3-(4-fluoropyridin-3-yl)phenyl]-8-[4-(trifluoromethoxy)phenyl]-2,3,4,8-tetrahydroimidazo[1,5-a]pyrimidin-6-amine] displayed an inhibition at 5 µM of 43%. The inhibition at 25 µM at human BACE2 (at 25 μM) stood at 25%. Taken in the same sequence, the figures for `NC1=N[C@](c2ccc(OC(F)(F)F)cc2)(c2cccc(-c3cncc(Cl)c3)c2)C2=NCCCN12` [Example 32B, (8R)-8-[3-(5-Chloropyridin-3-yl)phenyl]-8-[4-(trifluoromethoxy)-phenyl]-2,3,4,8-tetrahydroimidazo[1,5-a]pyrimidin-6-amine] were 19% and 34%.

Take `CC1(C)CN2C(N)=NC(c3ccc(OC(F)(F)F)cc3)(c3cccc(-c4cccnc4F)c3)C2=N1` (stereo not shown) [Example 42, 7-[3-(2-Fluoropyridin-3-yl)phenyl]-2,2-dimethyl-7-(4-trifluoromethoxyphenyl)-2,7-dihydro-3H-imidazo[1,5-a]imidazol-5-ylamine]: the IC50 on human BACE1 (setting [1]) came out at 0.15 µM. For the same compound, the inhibition at 25 µM on human BACE2 (at 25 μM) was found to be 52%. As to `NC1=N[C@@](c2ccc(OC(F)(F)F)cc2)(c2cccc(-c3cncnc3)c2)C2=NCCCN12` (single isomer, unassigned) [Example 31B], the inhibition at 25 µM at human BACE2 came to 28%.

As to `NC1=NC(c2ccc(OC(F)(F)F)cc2)(c2cccc(-c3cncnc3)c2)C2=NCCCN12` (stereo not shown) [Example 16, 8-(3-pyrimidin-5-ylphenyl)-8-[4-(trifluoromethoxy)phenyl]-2,3,4,8-tetrahydroimidazo[1,5-a]pyrimidin-6-amine], the melting point was in the range of 214 to 218 °C. On human BACE2, the inhibition at 25 µM turned out to be 49%. The compound `NC1=NC(c2ccc(OC(F)(F)F)cc2)(c2cccc(-c3cnccc3F)c2)C2=NCCCN12` (stereo not shown) [Example 27, 8-[3-(4-fluoropyridin-3-yl)phenyl]-8-[4-(trifluoromethoxy)phenyl]-2,3,4,8-tetrahydroimidazo[1,5-a]pyrimidin-6-amine] yielded a melting point of 83 to 97 °C. The same measure, in the same setting: next, `N#CNC1=NC(c2ccc(OC(F)(F)F)cc2)(c2cccc(-c3cncnc3)c2)C2=NCCCN12` (stereo not shown) [Example 29, 8-(3-Pyrimidin-5-yl-phenyl)-8-(4-trifluoromethoxy-phenyl)-2,3,4,8-tetrahydro-imidazo[1,5-a]pyrimidin-6-yl-cyanamide]: 227 to 231 °C. As to `NC1=NC(c2ccc(OC(F)(F)F)cc2)(c2cccc(-c3cncnc3)c2)c2nccn21` (stereo not shown) [Example 5], the IC50 at human BACE1 (setting [1]) came to 0.23 µM. Moreover, on human BACE2 (at 25 μM), the inhibition at 25 µM came out at 50%.
